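Five compound concentrations were applied to cells in 96-well plates for 48 hours; endpoints were derived by simple linear interpolation of the resulting dose-response curve. GI50 is the concentration that inhibits growth by half.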 The source made the active and inactive calls. Cut-off read from the data, not from the text of the source: active = GI50 up to about 1.1 µM and inactive = higher.
Experiments:
Assay in all cases: NCI tumour cell line growth inhibition, 48 h
[1] = system: 786-0
[2] = system: A498
[3] = system: A549
[4] = system: ACHN
[5] = system: CAKI-1
[6] = system: CCRF-CEM
[7] = system: COLO 205
[8] = system: DLD-1
[9] = system: DMS-114
[10] = system: DMS-273
[11] = system: EKVX
[12] = system: HCT-116
[13] = system: HCT-15
[14] = system: HL-60
[15] = system: HOP-18
[16] = system: HOP-62
[17] = system: HOP-92
[18] = system: HT-29
[19] = system: IGROV-1
[20] = system: K562
[21] = system: KM-20L2
[22] = system: KM12
[23] = system: LOX IMVI
[24] = system: LXFL 529
[25] = system: M14
[26] = system: M19-MEL
[27] = system: MOLT-4
[28] = system: Malme-3M
[29] = system: NCI-H226
[30] = system: NCI-H460
[31] = system: NCI-H522
[32] = system: OVCAR-3
[33] = system: OVCAR-4
[34] = system: OVCAR-5
[35] = system: OVCAR-8
[36] = system: RPMI-8226
[37] = system: RXF 393
[38] = system: RXF 631
[39] = system: SF-268
[40] = system: SF-295
[41] = system: SF-539
[42] = system: SK-MEL-28
[43] = system: SK-MEL-5
[44] = system: SN12C
[45] = system: SNB-19
[46] = system: SNB-75
[47] = system: SNB-78
[48] = system: SR
[49] = system: SW-620
[50] = system: TK-10
[51] = system: U-251
[52] = system: UACC-257
[53] = system: UACC-62
[54] = system: UO-31
[55] = system: XF498
[56] = system: HCC 2998
[57] = system: NCI-H23
[58] = system: SK-MEL-2
[59] = system: SK-OV-3

## CCN(CC)CCOc1ccc(CCc2cc(OC)c(OC)c(OC)c2)cc1
[1]
  GI50: 37.1 µM (inactive)
[2]
  GI50: 22 µM (inactive)
[3]
  GI50: 47.3 µM (inactive)
[4]
  GI50: 50.4 µM (inactive)
[5]
  GI50: 53.2 µM (inactive)
[6]
  GI50: 64.1 µM (inactive)
[7]
  GI50: 17.3 µM (inactive)
[8]
  GI50: 64.1 µM (inactive)
[9]
  GI50: 21.9 µM (inactive)
[10]
  GI50: 18.2 µM (inactive)
[11]
  GI50: 65.3 µM (inactive)
[12]
  GI50: 32.5 µM (inactive)
[13]
  GI50: 30.7 µM
[14]
  GI50: 18.9 µM (inactive)
[15]
  GI50: > 100 µM (inactive)
[16]
  GI50: 22.6 µM (inactive)
[17]
  GI50: 20.6 µM (inactive)
[18]
  GI50: 17.5 µM (inactive)
[19]
  GI50: > 100 µM (inactive)
[20]
  GI50: 27.8 µM (inactive)
[21]
  GI50: 31.9 µM (inactive)
[22]
  GI50: 35.3 µM (inactive)
[23]
  GI50: 13.9 µM (inactive)
[24]
  GI50: 35.1 µM (inactive)
[25]
  GI50: 17.5 µM (inactive)
[26]
  GI50: 23.8 µM (inactive)
[27]
  GI50: 21.9 µM (inactive)
[28]
  GI50: 43.9 µM (inactive)
[29]
  GI50: 45 µM (inactive)
[30]
  GI50: 38.5 µM (inactive)
[31]
  GI50: 20 µM (inactive)
[32]
  GI50: 45.7 µM (inactive)
[33]
  GI50: 55.3 µM (inactive)
[34]
  GI50: 22.3 µM (inactive)
[35]
  GI50: 67.9 µM (inactive)
[36]
  GI50: 16.8 µM (inactive)
[37]
  GI50: 34.9 µM (inactive)
[38]
  GI50: 53.5 µM (inactive)
[39]
  GI50: > 100 µM (inactive)
[40]
  GI50: 18.4 µM (inactive)
[41]
  GI50: 81.7 µM (inactive)
[42]
  GI50: 78 µM (inactive)
[43]
  GI50: 15.6 µM (inactive)
[44]
  GI50: > 100 µM (inactive)
[45]
  GI50: > 100 µM (inactive)
[46]
  GI50: 31.3 µM (inactive)
[47]
  GI50: > 100 µM (inactive)
[48]
  GI50: 31.3 µM (inactive)
[49]
  GI50: 18.4 µM (inactive)
[50]
  GI50: 30.5 µM (inactive)
[51]
  GI50: 45.3 µM (inactive)
[52]
  GI50: 27.9 µM (inactive)
[53]
  GI50: 26.1 µM (inactive)
[54]
  GI50: 28.2 µM (inactive)
[55]
  GI50: 23.7 µM (inactive)

## CCCN(CCC)c1c([N+](=O)[O-])cc(S(N)(=O)=O)cc1[N+](=O)[O-] [ORYZALIN]
[1]
  GI50: 16.7 µM (inactive)
[3]
  GI50: 16.4 µM (inactive)
[4]
  GI50: 17.9 µM (inactive)
[5]
  GI50: 13.6 µM (inactive)
[6]
  GI50: 16.8 µM (inactive)
[7]
  GI50: 21.8 µM (inactive)
[8]
  GI50: 19.1 µM (inactive)
[9]
  GI50: 19 µM (inactive)
[10]
  GI50: 18.8 µM (inactive)
[11]
  GI50: 21.3 µM (inactive)
[56]
  GI50: 18.5 µM (inactive)
[12]
  GI50: 18 µM (inactive)
[13]
  GI50: 17.5 µM
[15]
  GI50: 19.2 µM (inactive)
[16]
  GI50: 17.2 µM (inactive)
[18]
  GI50: 18.5 µM (inactive)
[19]
  GI50: 7.29 µM (inactive)
[20]
  GI50: 13.5 µM (inactive)
[21]
  GI50: 19.3 µM (inactive)
[22]
  GI50: 17.8 µM (inactive)
[23]
  GI50: 17.5 µM (inactive)
[24]
  GI50: 16.1 µM (inactive)
[25]
  GI50: 16.9 µM (inactive)
[26]
  GI50: 20.2 µM (inactive)
[27]
  GI50: 20.7 µM (inactive)
[28]
  GI50: 17.7 µM (inactive)
[29]
  GI50: 23.7 µM (inactive)
[57]
  GI50: 16.1 µM (inactive)
[30]
  GI50: 14.6 µM (inactive)
[31]
  GI50: 16.7 µM (inactive)
[32]
  GI50: 16.9 µM (inactive)
[33]
  GI50: 14 µM (inactive)
[34]
  GI50: 22.4 µM (inactive)
[35]
  GI50: 19.1 µM (inactive)
[36]
  GI50: 26.7 µM (inactive)
[38]
  GI50: 18.6 µM (inactive)
[39]
  GI50: 18.3 µM (inactive)
[40]
  GI50: 16.7 µM (inactive)
[41]
  GI50: 19.7 µM (inactive)
[42]
  GI50: 20.7 µM (inactive)
[58]
  GI50: 16.4 µM (inactive)
[43]
  GI50: 19.3 µM (inactive)
[59]
  GI50: 17.4 µM (inactive)
[44]
  GI50: 17.4 µM (inactive)
[45]
  GI50: 19.7 µM (inactive)
[46]
  GI50: 18.3 µM (inactive)
[48]
  GI50: 23.5 µM (inactive)
[49]
  GI50: 20.7 µM (inactive)
[51]
  GI50: 12 µM (inactive)
[52]
  GI50: 18.9 µM (inactive)
[53]
  GI50: 18.3 µM (inactive)
[54]
  GI50: 18.6 µM (inactive)
[55]
  GI50: 16.6 µM (inactive)

— ChEMBL document CHEMBL1201862, “PubChem BioAssay data set” (2004)
